According to US12264159B2, “Functionalized heterocycles as antiviral agents” (Enanta Pharmaceuticals, Inc., priority 2018, dated 2025):

Columns and labels:
[1] = tested on: HBV in 2.2.15 cells; assay: 2.2.15 cells: viral product in cell lysates quantified via quantitative real time PCR; format: cell-based, hepatitis B virus (HBV); conditions: Hepatitis B virus, 120 h, day 5 post treatment, 50% reduction of viral product vs no drug controls, readout (qPCR, HBsAg or HBeAg) not specified for the column
Outline: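 2.2.15 cells (35,000/well, DMEM/F12, 10% FBS, G418) were treated with 5-fold serial compound dilutions, 0.5% DMSO final. After 5 days, lysates were quantified by qPCR, or supernatant HBsAg/HBeAg by ELISA; EC50 is the concentration giving 50% reduction versus no-drug controls.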

[2] = Compound induced cellular toxicity in HepG2 cells, ATPlite 1Step; format: cell-based; conditions: human, three days exposure, 50% reduction of total ATP vs no drug controls
Description: At day 3, post seeding cells are treated with ATPlite 1Step according to the manufacturer's instructions.

Structure (SMILES) | EC50 [1] [nM] | CC50 at 3 days [2] [µM]
CC(C)(C)[C@@H]1Cn2nc(C3CC3)c(-c3ccccc3)c2-c2cc(=O)c(C(=O)O)cn21 [Example 149, (R)-6-(tert-butyl)-2-cyclopropyl-10-oxo-1-phenyl-5,6-dihydro-10H-pyrazolo[1,5-a]pyrido[2,1-c]pyrazine-9-carboxylic acid] | < 100 | > 25
CC(C)[C@@H]1Cn2nc(C3CC3)c(-c3ccoc3)c2-c2cc(=O)c(C(=O)O)cn21 [Example 132, (R)-2-cyclopropyl-1-(furan-3-yl)-6-isopropyl-10-oxo-5,6-dihydro-10H-pyrazolo[1,5-a]pyrido[2,1-c]pyrazine-9-carboxylic acid] | < 100 | > 25
CC(C)(C)[C@@H]1Cn2nc(-c3ccccc3C#N)cc2-c2cc(=O)c(C(=O)O)cn21 [Example 40, (R)-6-(tert-butyl)-2-(2-cyanophenyl)-10-oxo-5,6-dihydro-10H-pyrazolo[1,5-a]pyrido[2,2-c]pyrazine-12-carboxylic acid] | < 100 | > 25
Cc1cccc(-c2c(-c3ccc(F)cc3)nn3c2-c2cc(=O)c(C(=O)O)cn2[C@H](C(C)(C)C)C3)c1 [Example 170, (R)-6-(tert-butyl)-2-(4-fluorophenyl)-10-oxo-1-(m-tolyl)-5,6-dihydro-10H-pyrazolo[1,5-a]pyrido[2,1-c]pyrazine-9-carboxylic acid] | < 100 | 10 to 25
CC(C)[C@@H]1Cn2nc(-c3ccccc3F)c(-c3ccccc3F)c2-c2c(F)c(=O)c(C(=O)O)cn21 [Example 182, (R)-11-fluoro-1,2-bis(2-fluorophenyl)-6-isopropyl-10-oxo-5,6-dihydro-10H-pyrazolo[1,5-a]pyrido[2,1-c]pyrazine-9-carboxylic acid] | < 100 | > 25
COc1cccc(-c2cc3n(n2)C[C@@H](C(C)(C)C)n2cc(C(=O)O)c(=O)cc2-3)c1 [Example 11, (R)-6-(tert-butyl)-2-(3-methoxyphenyl)-10-oxo-5,6-dihydro-10H-pyrazolo[1,5-a]pyrido[2,2-c]pyrazine-12-carboxylic acid] | < 100 | > 25
Cc1ncc(-c2cc3n(n2)C[C@@H](C(C)(C)C)n2cc(C(=O)O)c(=O)cc2-3)s1 [Example 19, (R)-6-(tert-butyl)-2-(2-methylthiazol-5-yl)-10-oxo-5,6-dihydro-10H-pyrazolo[1,5-a]pyrido[2,2-c]pyrazine-12-carboxylic acid] | < 100 | > 25
CC(C)(C)[C@@H]1Cn2nc(-c3ccc(F)c4c3OCO4)cc2-c2cc(=O)c(C(=O)O)cn21 [Example 22, (R)-6-(tert-butyl)-2-(7-fluorobenzo[d][1,3]dioxol-4-yl)-10-oxo-5,6-dihydro-10H-pyrazolo[1,5-a]pyrido[2,2-c]pyrazine-12-carboxylic acid] | < 100 | > 25
COc1ccc(-c2cc3n(n2)C[C@@H](C(C)(C)C)n2cc(C(=O)O)c(=O)cc2-3)cc1 [Example 10, (R)-6-(tert-butyl)-2-(4-methoxyphenyl)-10-oxo-5,6-dihydro-10H-pyrazolo[1,5-a]pyrido[2,2-c]pyrazine-12-carboxylic acid] | < 100 | > 25
CC(C)[C@@H]1Cn2nc(-c3ccc(O)cc3)c(-c3ccc(O)cc3)c2-c2cc(=O)c(C(=O)O)cn21 [Example 172, (R)-1,2-bis(4-hydroxyphenyl)-6-isopropyl-10-oxo-5,6-dihydro-10H-pyrazolo[1,5-a]pyrido[2,1-c]pyrazine-9-carboxylic acid] | < 100 | > 25
CC(C)COc1ccccc1-c1cc2n(n1)C[C@@H](C(C)(C)C)n1cc(C(=O)O)c(=O)cc1-2 [Example 80, (R)-6-(tert-butyl)-2-(2-isobutoxyphenyl)-10-oxo-5,6-dihydro-10H-pyrazolo[1,5-a]pyrido[2,2-c]pyrazine-12-carboxylic acid] | < 100 | > 25
CC(C)(C)[C@@H]1Cn2ncc(-c3ccc(F)cc3F)c2-c2cc(=O)c(C(=O)O)cn21 [Example 100, (R)-6-(tert-butyl)-1-(2,4-difluorophenyl)-10-oxo-5,6-dihydro-10H-pyrazolo[1,5-a]pyrido[2,1-c]pyrazine-9-carboxylic acid] | < 100 | > 25
CC(C)(C)[C@@H]1Cn2nc(-c3cccc4c3sc3ccccc34)cc2-c2cc(=O)c(C(=O)O)cn21 [Example 70, (R)-6-(tert-butyl)-2-(dibenzo[b,d]thiophen-4-yl)-10-oxo-5,6-dihydro-10H-pyrazolo[1,5-a]pyrido[2,2-c]pyrazine-12-carboxylic acid] | 200 to 1000 | > 25
CC(C)(C)[C@@H]1Cn2nc(C3CC3)c(-c3ccc(F)cc3)c2-c2cc(=O)c(C(=O)O)cn21 [Example 146, (R)-6-(tert-butyl)-2-cyclopropyl-1-(4-fluorophenyl)-10-oxo-5,6-dihydro-10H-pyrazolo[1,5-a]pyrido[2,1-c]pyrazine-9-carboxylic acid] | < 100 | > 25
CC(C)(C)[C@@H]1Cn2nc(C3CC3)c(-c3cnsc3)c2-c2cc(=O)c(C(=O)O)cn21 [Example 162, (R)-6-(tert-butyl)-2-cyclopropyl-1-(isothiazol-4-yl)-10-oxo-5,6-dihydro-10H-pyrazolo[1,5-a]pyrido[2,1-c]pyrazine-9-carboxylic acid] | < 100 | > 25
COc1ccccc1-c1cc2n(n1)C[C@@H](C(C)(C)C)n1cc(C(=O)O)c(=O)cc1-2 [Example 12] | < 100 | > 25
CC(C)Oc1ccccc1-c1cc2n(n1)C[C@@H](C(C)(C)C)n1cc(C(=O)O)c(=O)cc1-2 [Example 82, (R)-6-(tert-butyl)-2-(2-isopropoxyphenyl)-10-oxo-5,6-dihydro-10H-pyrazolo[1,5-a]pyrido[2,2-c]pyrazine-12-carboxylic acid] | < 100 | > 25
CC(C)(C)[C@@H]1Cn2nc(C3CC3)c(-c3cccc4scnc34)c2-c2cc(=O)c(C(=O)O)cn21 [Example 164, (R)-1-(benzo[d]thiazol-4-yl)-6-(tert-butyl)-2-cyclopropyl-10-oxo-5,6-dihydro-10H-pyrazolo[1,5-a]pyrido[2,1-c]pyrazine-9-carboxylic acid] | < 100 | > 25
CC(C)[C@@H]1Cn2nc(C3CC3)c(-c3ccc(F)cc3)c2-c2cc(=O)c(C(=O)O)cn21 [Example 133, (R)-2-cyclopropyl-1-(4-fluorophenyl)-6-isopropyl-10-oxo-5,6-dihydro-10H-pyrazolo[1,5-a]pyrido[2,1-c]pyrazine-9-carboxylic acid] | < 100 | > 25
CC(C)(C)[C@@H]1Cn2nc(C3CC3)c(-c3ccoc3)c2-c2cc(=O)c(C(=O)O)cn21 [Example 152, (R)-6-(tert-butyl)-2-cyclopropyl-1-(furan-3-yl)-10-oxo-5,6-dihydro-10H-pyrazolo[1,5-a]pyrido[2,1-c]pyrazine-9-carboxylic acid] | < 100 | > 25
CC(C)(C)[C@@H]1Cn2nc(-c3ccccc3OC3CCCC3)cc2-c2cc(=O)c(C(=O)O)cn21 [Example 76, (R)-6-(tert-butyl)-2-(2-(cyclopentyloxy)phenyl)-10-oxo-5,6-dihydro-10H-pyrazolo[1,5-a]pyrido[2,2-c]pyrazine-12-carboxylic acid] | < 100 | > 25
CC(C)(C)[C@@H]1Cn2nc(-c3cccc4c3OC(F)(F)O4)cc2-c2cc(=O)c(C(=O)O)cn21 [Example 21, (R)-6-(tert-butyl)-2-(2,2-difluorobenzo[d][1,3]dioxol-4-yl)-10-oxo-5,6-dihydro-10H-pyrazolo[1,5-a]pyrido[2,2-c]pyrazine-12-carboxylic acid] | < 100 | > 25
CCOc1ccc(OC)cc1-c1cc2n(n1)C[C@@H](C(C)(C)C)n1cc(C(=O)O)c(=O)cc1-2 [Example 37, (R)-6-(tert-butyl)-2-(2-ethoxy-5-methoxyphenyl)-10-oxo-5,6-dihydro-10H-pyrazolo[1,5-a]pyrido[2,2-c]pyrazine-12-carboxylic acid] | < 100 | > 25
COc1ccc(-c2c(C3CC3)nn3c2-c2cc(=O)c(C(=O)O)cn2[C@H](C(C)(C)C)C3)cc1 [Example 158, (R)-6-(tert-butyl)-2-cyclopropyl-1-(4-methoxyphenyl)-10-oxo-5,6-dihydro-10H-pyrazolo[1,5-a]pyrido[2,1-c]pyrazine-9-carboxylic acid] | < 100 | > 25
CC(C)(C)[C@@H]1Cn2cnc(-c3ccc(F)cc3)c2-c2cc(=O)c(C(=O)O)cn21 [Example 207, (R)-6-(tert-butyl)-1-(4-fluorophenyl)-10-oxo-5,6-dihydro-10H-imidazo[1,5-a]pyrido[2,1-c]pyrazine-9-carboxylic acid] | < 100 | > 25
CC(C)[C@@H]1Cn2nc(C3CC3)c(-c3ccco3)c2-c2cc(=O)c(C(=O)O)cn21 [Example 136, (R)-2-cyclopropyl-1-(furan-2-yl)-6-isopropyl-10-oxo-5,6-dihydro-10H-pyrazolo[1,5-a]pyrido[2,1-c]pyrazine-9-carboxylic acid] | < 100 | > 25
CC(C)[C@@H]1Cn2nc(-c3cccc(F)c3)c(-c3cccc(F)c3)c2-c2cc(=O)c(C(=O)O)cn21 [Example 181, (R)-1,2-bis(3-fluorophenyl)-6-isopropyl-10-oxo-5,6-dihydro-10H-pyrazolo[1,5-a]pyrido[2,1-c]pyrazine-9-carboxylic acid] | < 100 | 10 to 25
